{"source": "the supplement of paper PMC10307832", "assay_in_all_cases": "relative viability (nuclei count vs DMSO), 5 days (fraction); higher = more cells survive", "key": {"[1]": {"system": "HARA", "how_it_was_run": "(§1)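 Five library-drug doses in √10 steps were combined with a fixed anchor-drug dose, or a single drug was given alone, by pin tool to lung cancer cell lines in 1536-well plates the day after seeding. Nuclei were stained and counted after 5 days. Relative viability is the nuclei count in treated wells over that in vehicle wells, taken as the median of duplicate plates.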"}, "[2]": {"system": "LOU-NH91", "how_it_was_run": "as §1"}, "[3]": {"system": "NCI-H23", "how_it_was_run": "as §1"}, "[4]": {"system": "LXF-289", "how_it_was_run": "as §1"}, "[5]": {"system": "PC-3 [JPC-3]", "how_it_was_run": "as §1"}, "[6]": {"system": "NCI-H647", "how_it_was_run": "as §1"}, "[7]": {"system": "LCLC-103H", "how_it_was_run": "as §1"}, "[8]": {"system": "COR-L23", "how_it_was_run": "as §1"}, "[9]": {"system": "NCI-H1793", "how_it_was_run": "as §1"}, "[10]": {"system": "NCI-H1651", "how_it_was_run": "as §1"}, "[11]": {"system": "NCI-H838", "how_it_was_run": "as §1"}, "[12]": {"system": "NCI-H522", "how_it_was_run": "as §1"}}, "data": [{"smiles": "Cc1csc(=NC2CCCCC2)n1/N=C/c1ccc(O)c(O)c1O", "note": "[MIM1] + O=C(CCCCCCC(=O)Nc1ccccc1)NO [Vorinostat] (partner 1 µM)", "values": [{"measurement": "relative viability", "setting": "[1]; first compound 0.2 µM", "result": 0.523}, {"measurement": "relative viability", "setting": "[1]; first compound 0.6325 µM", "result": 0.467}, {"measurement": "relative viability", "setting": "[1]; first compound 2 µM", "result": 0.56}, {"measurement": "relative viability", "setting": "[1]; first compound 6.325 µM", "result": 0.511}, {"measurement": "relative viability", "setting": "[1]; first compound 20 µM", "result": 0.0696}, {"measurement": "relative viability", "setting": "[2]; first compound 0.2 µM", "result": 0.672}, {"measurement": "relative viability", "setting": "[2]; first compound 0.6325 µM", "result": 0.822}, {"measurement": "relative viability", "setting": "[2]; first compound 2 µM", "result": 0.699}, {"measurement": "relative viability", "setting": "[2]; first compound 6.325 µM", "result": 0.359}, {"measurement": "relative viability", "setting": "[2]; first compound 20 µM", "result": 0.298}, {"measurement": "relative viability", "setting": "[3]; first compound 0.2 µM", "result": 0.55}, {"measurement": "relative viability", "setting": "[3]; first compound 0.6325 µM", "result": 0.277}, {"measurement": "relative viability", "setting": "[3]; first compound 2 µM", "result": 0.478}, {"measurement": "relative viability", "setting": "[3]; first compound 6.325 µM", "result": 0.19}, {"measurement": "relative viability", "setting": "[3]; first compound 20 µM", "result": 0.123}, {"measurement": "relative viability", "setting": "[4]; first compound 0.2 µM", "result": 0.777}, {"measurement": "relative viability", "setting": "[4]; first compound 0.6325 µM", "result": 0.462}, {"measurement": "relative viability", "setting": "[4]; first compound 2 µM", "result": 0.665}, {"measurement": "relative viability", "setting": "[4]; first compound 6.325 µM", "result": 0.499}, {"measurement": "relative viability", "setting": "[4]; first compound 20 µM", "result": 0.304}, {"measurement": "relative viability", "setting": "[5]; first compound 0.2 µM", "result": 0.776}, {"measurement": "relative viability", "setting": "[5]; first compound 0.6325 µM", "result": 0.714}, {"measurement": "relative viability", "setting": "[5]; first compound 2 µM", "result": 0.726}, {"measurement": "relative viability", "setting": "[5]; first compound 6.325 µM", "result": 0.657}, {"measurement": "relative viability", "setting": "[5]; first compound 20 µM", "result": 0.376}, {"measurement": "relative viability", "setting": "[6]; first compound 0.2 µM", "result": 0.655}, {"measurement": "relative viability", "setting": "[6]; first compound 0.6325 µM", "result": 0.61}, {"measurement": "relative viability", "setting": "[6]; first compound 2 µM", "result": 0.614}, {"measurement": "relative viability", "setting": "[6]; first compound 6.325 µM", "result": 0.454}, {"measurement": "relative viability", "setting": "[6]; first compound 20 µM", "result": 0.104}, {"measurement": "relative viability", "setting": "[7]; first compound 0.2 µM", "result": 0.731}, {"measurement": "relative viability", "setting": "[7]; first compound 0.6325 µM", "result": 0.39}, {"measurement": "relative viability", "setting": "[7]; first compound 2 µM", "result": 0.768}, {"measurement": "relative viability", "setting": "[7]; first compound 6.325 µM", "result": 0.48}, {"measurement": "relative viability", "setting": "[7]; first compound 20 µM", "result": 0.342}, {"measurement": "relative viability", "setting": "[8]; first compound 0.2 µM", "result": 0.42}, {"measurement": "relative viability", "setting": "[8]; first compound 0.6325 µM", "result": 0.441}, {"measurement": "relative viability", "setting": "[8]; first compound 2 µM", "result": 0.371}, {"measurement": "relative viability", "setting": "[8]; first compound 6.325 µM", "result": 0.314}, {"measurement": "relative viability", "setting": "[8]; first compound 20 µM", "result": 0.162}, {"measurement": "relative viability", "setting": "[9]; first compound 0.2 µM", "result": 0.783}, {"measurement": "relative viability", "setting": "[9]; first compound 2 µM", "result": 0.732}, {"measurement": "relative viability", "setting": "[9]; first compound 6.325 µM", "result": 0.649}, {"measurement": "relative viability", "setting": "[9]; first compound 20 µM", "result": 0.553}, {"measurement": "relative viability", "setting": "[10]; first compound 0.2 µM", "result": 0.509}, {"measurement": "relative viability", "setting": "[10]; first compound 0.6325 µM", "result": 0.408}, {"measurement": "relative viability", "setting": "[10]; first compound 2 µM", "result": 0.519}, {"measurement": "relative viability", "setting": "[10]; first compound 6.325 µM", "result": 0.395}, {"measurement": "relative viability", "setting": "[10]; first compound 20 µM", "result": 0.51}, {"measurement": "relative viability", "setting": "[11]; first compound 0.2 µM", "result": 0.717}, {"measurement": "relative viability", "setting": "[11]; first compound 0.6325 µM", "result": 0.747}, {"measurement": "relative viability", "setting": "[11]; first compound 2 µM", "result": 0.675}, {"measurement": "relative viability", "setting": "[11]; first compound 6.325 µM", "result": 0.413}, {"measurement": "relative viability", "setting": "[11]; first compound 20 µM", "result": 0.197}, {"measurement": "relative viability", "setting": "[12]; first compound 0.2 µM", "result": 0.858}, {"measurement": "relative viability", "setting": "[12]; first compound 0.6325 µM", "result": 0.916}]}]}
